# Columns and labels:
# [1] = tested on: rat; settings: Sub-acute repeat dose toxicity, sprague dawley, Oral, Gavage/Intubation, dose end: 1 month, group: systemic
# [2] = tested on: rat; settings: Fertility (Segment I), sprague dawley, Oral, Gavage/Intubation, dose end: 7 GD
# [3] = tested on: rat; settings: Prenatal developmental toxicity study, sprague dawley, Oral, Gavage/Intubation, dose end: 17 GD, group: maternal
# [4] = tested on: rat; settings: Fertility (Segment I), sprague dawley, Oral, Gavage/Intubation, dose end: 7 GD; remark: listed apart in the source
# [5] = tested on: dog; settings: Chronic toxicity, beagle, Oral, Gavage/Intubation, dose end: 6 month, group: systemic
# [6] = tested on: rabbit; settings: Prenatal developmental toxicity study; new zealand white; Oral; Gavage/Intubation; dose end: 19 GD; group: maternal; reproductive / reproductive performance / resorptions / resorptions + systemic / in life observation / body weight / body weight gain + …
# [7] = tested on: rat; settings: Prenatal developmental toxicity study, sprague dawley, Oral, Gavage/Intubation, dose end: 17 GD
# [8] = tested on: rabbit; settings: Prenatal developmental toxicity study; new zealand white; Oral; Gavage/Intubation; dose end: 19 GD; group: maternal; reproductive / reproductive performance / postimplantation loss / postimplantation loss + reproductive / reproductive performance / …
# [9] = tested on: rat; settings: Prenatal developmental toxicity study, sprague dawley, Oral, Gavage/Intubation, dose end: 17 GD; remark: listed apart in the source
# [10] = tested on: rat; settings: Chronic toxicity, sprague dawley, Oral, Gavage/Intubation, dose end: 6 month, group: systemic
# [11] = tested on: dog; settings: Sub-acute repeat dose toxicity, beagle, Oral, Gavage/Intubation, dose end: 1 month, group: systemic
# [12] = tested on: dog; settings: Chronic toxicity; beagle; Oral; Feed; dose end: 52 week; group: systemic; systemic / pathology gross / heart / discolored + systemic / pathology gross / heart / distended + systemic / pathology gross / heart / …
# [13] = tested on: rat; settings: Combined chronic toxicity/carcinogenicity, sprague dawley, Oral, Feed, dose end: 104 week, group: systemic
# [14] = tested on: dog; settings: Chronic toxicity; beagle; Oral; Feed; dose end: 52 week; group: systemic; systemic / in life observation / clinical signs / [other] + systemic / in life observation / clinical signs / tachycardia + systemic / …
# [15] = tested on: rat; settings: Subchronic oral toxicity in rodents, other, Feed, dose end: 92 day, group: systemic
# [16] = tested on: mouse; settings: Carcinogenicity, cd1, Oral, Feed, dose end: 91 week, group: systemic
# [17] = tested on: rat; settings: Combined chronic toxicity/carcinogenicity; sprague dawley; Oral; Feed; dose end: 2 year; group: systemic; systemic / in life observation / body weight / body weight gain
# [18] = tested on: rat; settings: Subchronic oral toxicity in rodents, Tif: RAIf (SPF), Feed, dose end: 13 week, group: systemic, systemic / in life observation / body weight / body weight + systemic / in life observation / body weight / body weight gain + systemic / …
# [19] = tested on: dog; settings: Subchronic oral toxicity in nonrodent, beagle, Feed, dose end: 13 week, group: systemic
# [20] = tested on: rat; settings: Prenatal developmental toxicity study, sprague dawley, Oral, Gavage/Intubation, dose end: 15 GD
# [21] = tested on: rabbit; settings: Prenatal developmental toxicity study, new zealand white, Oral, Gavage/Intubation, dose end: 19 GD
# [22] = tested on: rabbit; settings: Prenatal developmental toxicity study, new zealand white, Oral, Gavage/Intubation, dose end: 19 GD; remark: listed apart in the source
# [23] = systemic / clinical chemistry / alanine aminotransferase (alt/sgpt) / alanine aminotransferase (alt/sgpt) + systemic / clinical chemistry / …
# [24] = group: maternal, reproductive / reproductive performance / estrous cycle / abnormal + reproductive / reproductive performance / estrous cycle / corpora lutea…
# [25] = group: maternal, reproductive / reproductive performance / estrous cycle / corpora lutea + reproductive / reproductive performance / implantations / …
# [26] = group: parental, systemic / in life observation / body weight / body weight + systemic / in life observation / body weight / body weight gain + systemic / in…
# [27] = group: parental, systemic / in life observation / body weight / body weight gain + systemic / in life observation / food consumption / food consumption
# [28] = systemic / in life observation / body weight / body weight gain + systemic / in life observation / food consumption / food consumption
# [29] = systemic / in life observation / body weight / body weight gain + systemic / in life observation / food consumption / food consumption + …
# [30] = systemic / in life observation / body weight / body weight + systemic / organ weight / thymus / absolute + systemic / organ weight / thymus…
# [31] = group: developmental, systemic / in life observation / body weight / fetal weight
# [32] = group: maternal, reproductive / reproductive performance / aborted / aborted + reproductive / reproductive performance / postimplantation loss / …
# [33] = group: maternal, reproductive / reproductive performance / aborted / aborted + reproductive / reproductive performance / gestation index / gestation index + …
# [34] = systemic / pathology gross / uterus / dilatation
# [35] = systemic / pathology microscopic / parathyroid gland / adenoma + systemic / clinical chemistry / alanine aminotransferase (alt/sgpt) / …
# [36] = systemic / hematology / erythrocyte (rbc) count differential / erythrocyte (rbc) + systemic / hematology / hematocrit (hct) / hematocrit (…
# [37] = systemic / hematology / leukocyte (wbc) count differential / leukocyte (wbc)
# [38] = systemic / in life observation / body weight / body weight gain + systemic / hematology / erythrocyte (rbc) count differential / erythrocyte…
# [39] = systemic / pathology microscopic / kidney / basophilia + systemic / pathology microscopic / kidney / hyperplasia + systemic / hematology / …
# [40] = group: developmental, developmental / developmental malformation / bone / incomplete ossification
# [41] = group: maternal, reproductive / reproductive performance / aborted / aborted + systemic / in life observation / body weight / body weight gain + systemic / …
# [42] = group: developmental, developmental / developmental malformation / bone / delayed ossification
# [43] = group: maternal, reproductive / reproductive performance / resorptions / resorptions + systemic / in life observation / clinical signs / discharge on …
# [44] = group: maternal, reproductive / reproductive performance / resorptions / resorptions + systemic / in life observation / body weight / body weight + systemic…
compound,measurement,setting,value
CN(C)C(=O)NC1(c2ccccc2)CCN(CCC[C@]2(c3ccc(Cl)c(Cl)c3)CCCN(C(=O)c3ccccc3)C2)CC1,LOAEL,[1]; [23],> 250 mg/kg/day
same,NEL,[1]; [23],25 mg/kg/day
same,NOAEL,[1]; [23],≥ 250 mg/kg/day
same,LEL,[1]; systemic / pathology gross / mammary gland / [other],75 mg/kg/day
same,LOAEL,[2]; [24],> 250 mg/kg/day
same,NEL,[2]; [24],75 mg/kg/day
same,NOAEL,[2]; [24],≥ 250 mg/kg/day
same,LEL,[2]; [25],150 mg/kg/day
same,LOAEL,[2]; [26],> 250 mg/kg/day
same,NOAEL,[2]; [26],≥ 250 mg/kg/day
same,LEL,[2]; [27],75 mg/kg/day
same,NEL,[2]; [27],< 75 mg/kg/day
same,LEL,[3]; [28],100 mg/kg/day
same,LOAEL,[3]; [28],100 mg/kg/day
same,NEL,[3]; [29],50 mg/kg/day
same,NOAEL,[3]; [29],50 mg/kg/day
same,LEL,[4]; [25],150 mg/kg/day
same,LOAEL,[4]; [25],> 150 mg/kg/day
same,NEL,[4]; [25],75 mg/kg/day
same,NOAEL,[4]; [25],≥ 150 mg/kg/day
same,LEL,[4]; [27],150 mg/kg/day
same,LOAEL,[4]; [27],> 150 mg/kg/day
same,NEL,[4]; [27],75 mg/kg/day
same,NOAEL,[4]; [27],≥ 150 mg/kg/day
same,LOAEL,[5]; [23],> 90 mg/kg/day
same,NOAEL,[5]; [23],≥ 90 mg/kg/day
same,LEL,[5]; [30],10 mg/kg/day
same,NEL,[5]; [30],< 10 mg/kg/day
same,LEL,[6],75 mg/kg/day
same,LOAEL,[6],> 75 mg/kg/day
same,NEL,[6],25 mg/kg/day
same,NOAEL,[6],≥ 75 mg/kg/day
same,LEL,[7]; [31],250 mg/kg/day
same,LOAEL,[7]; [31],> 250 mg/kg/day
same,NEL,[7]; [31],< 250 mg/kg/day
same,NOAEL,[7]; [31],≥ 250 mg/kg/day
same,LEL,[7]; [32],250 mg/kg/day
same,LOAEL,[7]; [32],> 250 mg/kg/day
same,NEL,[7]; [32],< 250 mg/kg/day
same,NOAEL,[7]; [32],≥ 250 mg/kg/day
same,LEL,[8],50 mg/kg/day
same,LOAEL,[8],> 100 mg/kg/day
same,NEL,[8],< 50 mg/kg/day
same,NOAEL,[8],≥ 100 mg/kg/day
same,LEL,[9]; [31],200 mg/kg/day
same,LOAEL,[9]; [31],> 200 mg/kg/day
same,NEL,[9]; [31],75 mg/kg/day
same,NOAEL,[9]; [31],≥ 200 mg/kg/day
same,LEL,[9]; [33],200 mg/kg/day
same,LOAEL,[9]; [33],200 mg/kg/day
same,NEL,[9]; [33],75 mg/kg/day
same,NOAEL,[9]; [33],75 mg/kg/day
same,LEL,[10]; [34],25 mg/kg/day
same,NEL,[10]; [34],< 25 mg/kg/day
same,LOAEL,[10]; [35],> 250 mg/kg/day
same,NOAEL,[10]; [35],≥ 250 mg/kg/day
same,LOAEL,[11]; [23],> 360 mg/kg/day
same,NOAEL,[11]; [23],≥ 360 mg/kg/day
same,LEL,[11]; [36],40 mg/kg/day
same,NEL,[11]; [36],< 40 mg/kg/day
CCNc1nc(Cl)nc(NC(C)C)n1 [Atrazine],LEL,[12],24.1 mg/kg/day
same,LOAEL,[12],24.1 mg/kg/day
same,NEL,[12],3.61 mg/kg/day
same,NOAEL,[12],3.61 mg/kg/day
same,LOAEL,[13]; [28],25 mg/kg/day
same,NEL,[13]; [29],0.5 mg/kg/day
same,NOAEL,[13]; [29],3.5 mg/kg/day
same,LEL,[13]; systemic / pathology microscopic / mammary gland / adenocarcinoma,3.5 mg/kg/day
same,LEL,[14],33.6 mg/kg/day
same,LOAEL,[14],33.6 mg/kg/day
same,NEL,[14],4.97 mg/kg/day
same,NOAEL,[14],4.97 mg/kg/day
same,LEL,[15]; [37],0.659 mg/kg/day
same,NEL,[15]; [37],< 0.659 mg/kg/day
same,LOAEL,[15]; systemic / in life observation / body weight / body weight + systemic / in life observation / body weight / body weight gain,34 mg/kg/day
same,NOAEL,[15]; systemic / in life observation / body weight / body weight + systemic / in life observation / body weight / body weight gain + systemic / …,3.3 mg/kg/day
same,LOAEL,[16]; systemic / in life observation / body weight / body weight gain,194 mg/kg/day
same,LEL,[16]; [38],194 mg/kg/day
same,NEL,[16]; [38],38.4 mg/kg/day
same,NOAEL,[16]; [38],38.4 mg/kg/day
same,LEL,[17],25 mg/kg/day
same,LOAEL,[17],25 mg/kg/day
same,NEL,[17],3.5 mg/kg/day
same,NOAEL,[17],3.5 mg/kg/day
same,LEL,[18],34.9 mg/kg/day
same,LOAEL,[18],34.9 mg/kg/day
same,NEL,[18],3.2 mg/kg/day
same,NOAEL,[18],3.2 mg/kg/day
same,LOAEL,[19]; systemic / pathology microscopic / kidney / basophilia + systemic / pathology microscopic / kidney / hyperplasia,28.9 mg/kg/day
same,LEL,[19]; [39],28.9 mg/kg/day
same,NEL,[19]; [39],3.71 mg/kg/day
same,NOAEL,[19]; [39],3.71 mg/kg/day
same,LEL,[20]; [40],5 mg/kg/day
same,LOAEL,[20]; [40],100 mg/kg/day
same,NEL,[20]; [40],< 5 mg/kg/day
same,NOAEL,[20]; [40],25 mg/kg/day
same,LEL,"[20]; group: maternal, reproductive / reproductive performance / aborted / aborted",25 mg/kg/day
same,NEL,[20]; [41],5 mg/kg/day
same,NOAEL,[20]; [41],25 mg/kg/day
same,LOAEL,"[20]; group: maternal, systemic / in life observation / body weight / body weight gain + systemic / in life observation / food consumption / food consumption",100 mg/kg/day
same,LEL,[21]; [42],75 mg/kg/day
same,LOAEL,[21]; [42],75 mg/kg/day
same,NEL,[21]; [42],5 mg/kg/day
same,NOAEL,[21]; [42],5 mg/kg/day
same,LEL,[21]; [43],75 mg/kg/day
same,LOAEL,[21]; [43],75 mg/kg/day
same,NEL,[21]; [43],5 mg/kg/day
same,NOAEL,[21]; [43],5 mg/kg/day
same,LEL,[22]; [42],75 mg/kg/day
same,LOAEL,[22]; [42],75 mg/kg/day
same,NEL,[22]; [42],5 mg/kg/day
same,NOAEL,[22]; [42],5 mg/kg/day
same,LEL,[22]; [44],75 mg/kg/day
same,LOAEL,[22]; [44],75 mg/kg/day
same,NEL,[22]; [44],5 mg/kg/day
same,NOAEL,[22]; [44],5 mg/kg/day

# — EPA's ToxRefDB 2
